From ChEMBL document CHEMBL4406914, “Impact of Minor Structural Modifications on Properties of a Series of mTOR Inhibitors” (ACS Med Chem Lett, 2019)
≈ marks a conversion by molar mass, not a printed value.

Assays:
[1] = molecular target: Phosphatidylinositol 4,5-bisphosphate 3-kinase catalytic subunit alpha isoform (Homo sapiens, UniProt P42336)
Description: Inhibition of PI3Kalpha (unknown origin) using PIP2 as substrate measured after 30 mins by TR-FRET assay

[2] = Hepatic intrinsic clearance in human Hepatocytes assessed per at 1 uM measured upto 90 mins by LC-MS/MS analysis; format: ADME, cell-based, Hepatocyte; conditions: 1.5 h
[3] = Lipophilicity, ChromlogD of compound at 0.5 mM at pH 6.5 by UPLC-UV analysis; conditions: buffer, pH 6.5, 500 µM
[4] = Kinetic aqueous solubility of compound in phosphate buffer at pH 7.4 at 100 uM at 20 degree C shaken for 24 hrs by HPLC analysis; format: physicochemical; conditions: read-out: Kinetic_solubility
mTORC1 = mTORC1 (Homo sapiens, UniProt P42345); assay: Inhibition of mTORC1 in human A431 cells assessed as S6RP phosphorylation incubated for 3 hrs by HTRF assay; format: cell-based
[5] = Metabolic stability in human liver microsomes assessed as parent compound remaining at 1 uM measured at 15 mins in presence of phase 1 metabolism cofactors by LC-MS/MS analysis; format: ADME, Microsome; conditions: read-out: Stability
mTORC2 = mTORC2 (Homo sapiens, UniProt P42345); assay: Inhibition of mTORC2 in human A431 cells assessed as AKT phosphorylation at S473 residue incubated for 3 hrs by HTRF assay; format: cell-based
[6] = molecular target: Serine/threonine-protein kinase mTOR (Homo sapiens, UniProt P42345); assay: Inhibition of human recombinant GST-tagged mTOR catalytic domain (1360 to 2549 residues) expressed in baculovirus expression system using GFP-4E-BP1 peptide as substrate incubated for 1 hr by LanthaScreen assay

Chain of Phosphatidylinositol 4,5-bisphosphate 3-kinase catalytic subunit alpha isoform (P42336 whole entry, canonical isoform): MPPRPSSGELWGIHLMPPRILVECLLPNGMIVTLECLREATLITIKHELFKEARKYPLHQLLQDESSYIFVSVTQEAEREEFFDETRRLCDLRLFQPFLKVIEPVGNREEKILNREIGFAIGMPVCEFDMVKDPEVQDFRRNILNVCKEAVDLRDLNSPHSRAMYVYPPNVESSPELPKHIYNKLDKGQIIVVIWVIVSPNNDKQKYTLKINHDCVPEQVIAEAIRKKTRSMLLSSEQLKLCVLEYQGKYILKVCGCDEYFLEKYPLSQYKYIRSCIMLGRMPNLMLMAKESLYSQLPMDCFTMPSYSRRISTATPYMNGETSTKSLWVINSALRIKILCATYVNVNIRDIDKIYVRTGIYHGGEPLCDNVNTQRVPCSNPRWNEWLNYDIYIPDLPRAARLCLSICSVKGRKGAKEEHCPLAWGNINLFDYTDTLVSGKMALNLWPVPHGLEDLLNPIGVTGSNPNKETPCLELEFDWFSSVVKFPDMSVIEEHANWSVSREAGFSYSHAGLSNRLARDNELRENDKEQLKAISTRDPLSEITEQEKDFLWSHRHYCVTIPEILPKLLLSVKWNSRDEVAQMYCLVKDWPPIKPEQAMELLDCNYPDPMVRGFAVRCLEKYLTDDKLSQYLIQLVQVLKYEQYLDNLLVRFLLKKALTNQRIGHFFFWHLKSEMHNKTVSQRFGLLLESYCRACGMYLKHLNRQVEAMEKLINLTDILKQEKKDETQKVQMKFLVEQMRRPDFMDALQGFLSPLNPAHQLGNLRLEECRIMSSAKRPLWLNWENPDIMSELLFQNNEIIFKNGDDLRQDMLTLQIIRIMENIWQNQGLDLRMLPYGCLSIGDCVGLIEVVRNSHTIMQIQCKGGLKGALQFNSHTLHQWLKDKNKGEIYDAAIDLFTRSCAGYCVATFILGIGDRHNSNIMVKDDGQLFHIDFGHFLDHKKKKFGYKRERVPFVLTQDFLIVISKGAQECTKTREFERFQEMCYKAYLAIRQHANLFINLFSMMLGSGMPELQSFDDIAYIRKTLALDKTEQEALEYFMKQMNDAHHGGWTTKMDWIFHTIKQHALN

CC(C)n1nc(-c2ccc3oc(N)nc3c2)c2c(Cl)nc(N)nc21
Ki [1]: 920 nM | CLH [2]: 11 µL/min | ChromlogD6.5 [3]: 1.7 | solubility kinetic at 24 h, 100 µM [4]: 2 µM (≈ 0.688 µg/mL) | IC50 (mTORC1): 8 nM | remaining at 0.25 h, 1 µM [5]: 92% | IC50 (mTORC2): 20 nM

CC(C)n1nc(-c2ccc3oc(N)nc3c2)c2c(=O)[nH]c(N(C)C)nc21
Ki [1]: > 10000 nM | Ki [6]: 1700 nM | CLH [2]: < 5 µL/min | ChromlogD6.5 [3]: 2.1 | solubility kinetic at 24 h, 100 µM [4]: 2 µM (≈ 0.707 µg/mL) | remaining at 0.25 h, 1 µM [5]: 90%

Cc1nc2c(c(-c3ccc4oc(N)nc4c3)nn2C(C)C)c(=O)[nH]1
Ki [1]: > 10000 nM | Ki [6]: 40 nM | CLH [2]: < 5 µL/min | ChromlogD6.5 [3]: 1.2 | solubility kinetic at 24 h, 100 µM [4]: 3 µM (≈ 0.973 µg/mL) | IC50 (mTORC1): 45 nM | remaining at 0.25 h, 1 µM [5]: > 95% | IC50 (mTORC2): 90 nM

COc1nc(N)nc2c1c(-c1ccc3oc(N)nc3c1)nn2C(C)C
Ki [1]: 250 nM | Ki [6]: 370 nM | ChromlogD6.5 [3]: 1.6 | solubility kinetic at 24 h, 100 µM [4]: < 1 µM | IC50 (mTORC1): 420 nM | remaining at 0.25 h, 1 µM [5]: > 95% | IC50 (mTORC2): 680 nM

CC(C)n1nc(-c2ccc3oc(N)nc3c2)c2c(Br)nc(N)nc21
Ki [1]: 1000 nM | Ki [6]: 21 nM | CLH [2]: 55 µL/min | ChromlogD6.5 [3]: 1.8 | solubility kinetic at 24 h, 100 µM [4]: 4 µM (≈ 1.55 µg/mL) | IC50 (mTORC1): 35 nM | remaining at 0.25 h, 1 µM [5]: 94% | IC50 (mTORC2): 60 nM

CCc1nc(N)nc2c1c(-c1ccc3oc(N)nc3c1)nn2C(C)C
Ki [1]: 85 nM | Ki [6]: 50 nM | CLH [2]: < 5 µL/min | ChromlogD6.5 [3]: 1.2 | solubility kinetic at 24 h, 100 µM [4]: 62 µM (≈ 20.9 µg/mL) | IC50 (mTORC1): 60 nM | remaining at 0.25 h, 1 µM [5]: 93% | IC50 (mTORC2): 140 nM

CC(C)n1nc(-c2ccc3oc(N)nc3c2)c2c(N)nc(N)nc21
Ki [1]: 150 nM | Ki [6]: 4 nM | CLH [2]: < 5 µL/min | ChromlogD6.5 [3]: -0.1 | solubility kinetic at 24 h, 100 µM [4]: 88 µM (≈ 28.5 µg/mL) | IC50 (mTORC1): 4 nM | remaining at 0.25 h, 1 µM [5]: > 95% | IC50 (mTORC2): 11 nM

CC(C)n1nc(-c2ccc3oc(N)nc3c2)c2c(=O)[nH]c(N)nc21
Ki [1]: 3200 nM | Ki [6]: 20 nM | CLH [2]: < 5 µL/min | ChromlogD6.5 [3]: 0.4 | solubility kinetic at 24 h, 100 µM [4]: 9.2 µM (≈ 2.99 µg/mL) | IC50 (mTORC1): 40 nM | remaining at 0.25 h, 1 µM [5]: > 95% | IC50 (mTORC2): 200 nM

CC(C)n1nc(-c2ccc3oc(N)nc3c2)c2c(F)nc(N)nc21
Ki [1]: 2600 nM | Ki [6]: 13 nM | CLH [2]: 57 µL/min | ChromlogD6.5 [3]: 1.8 | solubility kinetic at 24 h, 100 µM [4]: < 1 µM | IC50 (mTORC1): 40 nM | remaining at 0.25 h, 1 µM [5]: 83% | IC50 (mTORC2): 80 nM

CC(C)n1nc(-c2ccc3oc(N)nc3c2)c2c(C(F)(F)F)nc(N)nc21
Ki [1]: > 10000 nM | Ki [6]: 2300 nM | CLH [2]: < 5 µL/min | ChromlogD6.5 [3]: 2.4 | solubility kinetic at 24 h, 100 µM [4]: < 1 µM | remaining at 0.25 h, 1 µM [5]: > 95%

CC(C)n1nc(-c2ccc3oc(N)nc3c2)c2c(N)ncnc21 [SAPANISERTIB]
CLH [2]: < 5 µL/min | ChromlogD6.5 [3]: 0.4 | solubility kinetic at 24 h, 100 µM [4]: 82 µM (≈ 25.4 µg/mL) | remaining at 0.25 h, 1 µM [5]: > 95%

CC(C)n1nc(-c2ccc3oc(N)nc3c2)c2c(CO)nc(N)nc21
Ki [1]: > 10000 nM | Ki [6]: 4000 nM | CLH [2]: < 5 µL/min | ChromlogD6.5 [3]: 0.2 | solubility kinetic at 24 h, 100 µM [4]: 82 µM (≈ 27.8 µg/mL) | remaining at 0.25 h, 1 µM [5]: > 95%

CCCCn1nc(-c2ccc3oc(N)nc3c2)c2c(Cl)nc(N)nc21
Ki [1]: 4600 nM | Ki [6]: 11 nM | ChromlogD6.5 [3]: 2.3 | solubility kinetic at 24 h, 100 µM [4]: < 1 µM | IC50 (mTORC1): 7 nM | IC50 (mTORC2): 20 nM

Cc1nc(N)nc2c1c(-c1ccc3oc(N)nc3c1)nn2C(C)C
Ki [1]: 990 nM | Ki [6]: 62 nM | CLH [2]: < 5 µL/min | ChromlogD6.5 [3]: 0.8 | solubility kinetic at 24 h, 100 µM [4]: 74 µM (≈ 23.9 µg/mL) | IC50 (mTORC1): 40 nM | remaining at 0.25 h, 1 µM [5]: > 95% | IC50 (mTORC2): 200 nM

CCCCn1nc(-c2ccc3oc(N)nc3c2)c2c(C)nc(N)nc21
Ki [1]: 2200 nM | Ki [6]: 33 nM | ChromlogD6.5 [3]: 1.4 | solubility kinetic at 24 h, 100 µM [4]: 5.2 µM (≈ 1.75 µg/mL) | IC50 (mTORC1): 30 nM | IC50 (mTORC2): 90 nM

CC(C)n1nc(-c2ccc3oc(N)nc3c2)c2cnc(N)nc21
Ki [1]: 780 nM | Ki [6]: 6 nM | CLH [2]: 150 µL/min | ChromlogD6.5 [3]: 1.1 | solubility kinetic at 24 h, 100 µM [4]: 1.6 µM (≈ 0.495 µg/mL) | IC50 (mTORC1): 7 nM | remaining at 0.25 h, 1 µM [5]: 94% | IC50 (mTORC2): 15 nM

CNc1nc2c(c(-c3ccc4oc(N)nc4c3)nn2C(C)C)c(=O)[nH]1
Ki [1]: > 10000 nM | Ki [6]: 190 nM | CLH [2]: < 5 µL/min | ChromlogD6.5 [3]: 1.5 | solubility kinetic at 24 h, 100 µM [4]: < 1 µM | IC50 (mTORC1): 240 nM | remaining at 0.25 h, 1 µM [5]: > 95% | IC50 (mTORC2): 360 nM

CC(C)n1nc(-c2ccc3oc(N)nc3c2)c2c(C#N)nc(N)nc21
Ki [1]: > 10000 nM | Ki [6]: 2200 nM | CLH [2]: < 5 µL/min | ChromlogD6.5 [3]: 1.8 | solubility kinetic at 24 h, 100 µM [4]: < 1 µM | remaining at 0.25 h, 1 µM [5]: > 95%
